# Measured values reported in US12570610B2, “Macromolecule-supported aminobenzazepine compounds” (Bolt Biotherapeutics, Inc., priority 2019, dated 2026).
# How the values were obtained:
# human TLR7 = target: T1, human TLR7 (Homo sapiens, UniProt Q9NYK1); assay: HEK293 NFKB reporter cells expressing human TLR7 (HEK Reporter Assay); format: cell-based; details: read-out: HEK293 hTLR7 EC50
# T1 construct: host or cells: HEK293 reporter cells
# T1 sequence (Q9NYK1 27-1049): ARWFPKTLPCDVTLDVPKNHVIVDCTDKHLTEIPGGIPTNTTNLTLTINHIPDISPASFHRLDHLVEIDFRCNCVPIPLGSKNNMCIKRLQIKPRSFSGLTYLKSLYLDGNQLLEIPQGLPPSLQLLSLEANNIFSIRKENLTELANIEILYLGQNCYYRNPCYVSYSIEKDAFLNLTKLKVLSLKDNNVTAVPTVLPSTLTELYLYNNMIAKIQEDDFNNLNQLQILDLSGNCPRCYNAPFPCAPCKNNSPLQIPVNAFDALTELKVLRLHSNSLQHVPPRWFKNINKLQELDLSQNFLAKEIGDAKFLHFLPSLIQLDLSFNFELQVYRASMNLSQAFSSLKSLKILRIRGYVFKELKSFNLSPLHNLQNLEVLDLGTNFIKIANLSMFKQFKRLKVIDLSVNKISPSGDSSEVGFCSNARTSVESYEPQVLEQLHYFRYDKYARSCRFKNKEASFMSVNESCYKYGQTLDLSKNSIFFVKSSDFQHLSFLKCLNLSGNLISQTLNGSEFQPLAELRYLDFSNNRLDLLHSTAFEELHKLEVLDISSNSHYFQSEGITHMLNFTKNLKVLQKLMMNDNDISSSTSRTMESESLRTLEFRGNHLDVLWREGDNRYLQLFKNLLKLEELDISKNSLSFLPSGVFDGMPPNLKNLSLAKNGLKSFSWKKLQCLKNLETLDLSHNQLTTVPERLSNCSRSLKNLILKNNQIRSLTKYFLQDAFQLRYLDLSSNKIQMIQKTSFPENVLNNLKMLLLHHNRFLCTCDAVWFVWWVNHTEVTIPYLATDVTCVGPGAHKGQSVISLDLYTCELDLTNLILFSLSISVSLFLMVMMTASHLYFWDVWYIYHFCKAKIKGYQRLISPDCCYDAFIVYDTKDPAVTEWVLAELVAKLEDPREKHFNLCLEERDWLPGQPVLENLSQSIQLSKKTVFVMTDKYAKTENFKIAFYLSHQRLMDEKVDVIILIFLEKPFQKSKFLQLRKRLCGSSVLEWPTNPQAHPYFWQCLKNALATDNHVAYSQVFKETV
# Experimental: (§1) Each compound was synthesized and purified by the methods in the Examples provided herein, characterized by mass spectrometry, and shown to have the mass indicated. Activity against HEK293 NFKB reporter cells expressing human TLR7 or human TLR8 was measured according to method described in Example 67.
# (§2) Example 67: HEK Reporter Assay
# (§3) HEK293 reporter cells expressing human TLR7 or human TLR8 were purchased from Invivogen and vendor protocols were followed for cellular propagation and experimentation. Briefly, cells were grown to 80-85% confluence at 5% CO2 in DMEM supplemented with 10% FBS, Zeocin, and Blasticidin. Cells were then seeded in 96-well flat plates at 4×10^4 cells/well with substrate containing HEK detection medium and immunostimulatory molecules. Activity was measured using a plate reader at 620-655 nm wavelength.
# human TLR8 = target: T2, human TLR8 (Homo sapiens, UniProt Q9NR97); assay: HEK293 NFKB reporter cells expressing human TLR8 (HEK Reporter Assay); format: cell-based; details: read-out: HEK293 hTLR8 EC50
# T2 construct: host or cells: HEK293 reporter cells
# T2 sequence (Q9NR97 27-1041): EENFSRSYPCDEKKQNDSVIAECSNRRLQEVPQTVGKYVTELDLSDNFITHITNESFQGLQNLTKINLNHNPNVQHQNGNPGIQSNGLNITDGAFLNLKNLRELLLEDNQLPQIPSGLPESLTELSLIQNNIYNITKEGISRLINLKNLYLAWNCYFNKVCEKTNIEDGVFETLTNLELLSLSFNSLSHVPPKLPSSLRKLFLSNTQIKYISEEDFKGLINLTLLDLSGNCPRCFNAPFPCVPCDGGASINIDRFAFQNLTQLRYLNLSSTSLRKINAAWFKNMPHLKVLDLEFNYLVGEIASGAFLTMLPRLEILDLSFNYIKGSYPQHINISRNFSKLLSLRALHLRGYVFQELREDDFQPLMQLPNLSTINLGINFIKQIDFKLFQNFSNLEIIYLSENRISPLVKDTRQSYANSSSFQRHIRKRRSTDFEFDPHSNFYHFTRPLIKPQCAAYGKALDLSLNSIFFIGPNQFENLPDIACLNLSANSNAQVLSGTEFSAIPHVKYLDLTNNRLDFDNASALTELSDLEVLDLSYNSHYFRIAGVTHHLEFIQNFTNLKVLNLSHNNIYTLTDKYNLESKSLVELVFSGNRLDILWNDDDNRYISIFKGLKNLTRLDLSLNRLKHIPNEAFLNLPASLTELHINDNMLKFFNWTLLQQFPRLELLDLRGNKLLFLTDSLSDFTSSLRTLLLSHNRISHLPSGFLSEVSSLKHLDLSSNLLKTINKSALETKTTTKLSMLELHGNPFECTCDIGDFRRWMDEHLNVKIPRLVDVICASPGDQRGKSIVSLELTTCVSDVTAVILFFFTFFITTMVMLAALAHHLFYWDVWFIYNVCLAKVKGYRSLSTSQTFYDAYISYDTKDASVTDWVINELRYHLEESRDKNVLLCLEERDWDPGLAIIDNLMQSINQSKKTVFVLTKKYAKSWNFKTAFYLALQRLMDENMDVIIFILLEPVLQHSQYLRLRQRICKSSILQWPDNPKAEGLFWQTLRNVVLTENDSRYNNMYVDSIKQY
# Experimental: as §1, §2, §3
EC50 (human TLR7) [µM],EC50 (human TLR8) [µM],Compound
> 9,> 9,CCCN(CCC)C(=O)C1=Cc2ccc(-c3cccc(S(=O)(=O)Nc4nccs4)c3)cc2N=C(N)C1 [Bz-35]
> 9,> 9,CCCN(CCC)C(=O)C1=Cc2ccc(-c3cccc(S(=O)(=O)NC(=O)c4ccccc4)c3)cc2N=C(N)C1 [Bz-37]
0.332,> 9,CCCN(CCC)C(=O)C1=Cc2ccc(-c3cc(C(F)(F)F)cc(S(=O)(=O)N4CC(CN(C)C)C4)c3)cc2N=C(N)C1 [Bz-40]
> 9,> 9,CCCN(CCc1c[nH]cn1)C(=O)C1=Cc2ccc(-c3cccc(S(=O)(=O)N4CC(CO)C4)c3)cc2N=C(N)C1 [Bz-41]
–,1.02,CCCN(Cc1ccc(CN2CCN(C(=O)OC(C)(C)C)CC2)cc1)C(=O)C1=Cc2ccc(-c3cccc(S(=O)(=O)N4CC(CO)C4)c3)cc2N=C(N)C1 [Bz-44]
> 9,–,CCCN(CCC)C(=O)C1=Cc2ccc(-c3c(C)n[nH]c3C)cc2N=C(N)C1 [Bz-45]
–,> 9,CCN(CC)C(=O)C1=Cc2ccc(-c3cccc(S(=O)(=O)N4CC(CO)C4)c3)cc2N=C(N)C1 [Bz-50]
> 9,> 9,CCCNC(=O)C1=Cc2ccc(-c3cccc(S(=O)(=O)N4CC(CO)C4)c3)cc2N=C(N)C1 [Bz-58]
> 9,–,CCCN(Cc1ccc(CN)cc1)C(=O)C1=Cc2ccccc2N=C(N)C1 [Bz-59]
> 9,–,CCCN(CCOC)C(=O)C1=Cc2ccc(-c3cccc(S(=O)(=O)N4CC(CO)C4)c3)cc2N=C(N)C1 [Bz-60]
> 9,5.85,CCCN(CCc1ccc(OC)cc1)C(=O)C1=Cc2ccc(-c3cccc(S(=O)(=O)N4CC(CN)C4)c3)cc2N=C(N)C1 [Bz-61]
> 9,> 9,CCCN(Cc1ccc(CN(C)C)cc1)C(=O)C1=Cc2ccc(-c3cccc(S(=O)(=O)N4CC(CN)C4)c3)cc2N=C(N)C1 [Bz-62]
3.93,5.9,CCCN(CCC)C(=O)C1=Cc2ccc(C(=O)COC)cc2N=C(N)C1 [Bz-65]
> 9,–,CCCN(NCC)C(=O)C1=Cc2ccc(-c3cccc(S(=O)(=O)N4CC(CO)C4)c3)cc2N=C(N)C1 [Bz-71]
> 9,–,CCCN(CCC)C(=O)C1=Cc2ccc(CCCCCN)cc2N=C(N)C1 [Bz-74]
> 9,–,CCCN(CCC(F)(F)F)C(=O)C1=Cc2ccc(C(=O)Nc3ccccc3)cc2N=C(N)C1 [Bz-75]
